# Data as given in patent publication US12595255B2, “Heteroaryl-substituted imidazole derivatives” (Hoffmann-La Roche Inc., priority 2021, dated 2026).
# Test system: Acinetobacter baumannii ATCC17961
# Test: Antimicrobial susceptibility testing: 90% growth inhibitory concentration (IC90) determination
# Assay type: cell-based
# Conditions: ATCC17961, 90% growth inhibitory concentration, Iso-Sensitest broth, OD 600 nm over 16 h, 35±2° C., read-out: ATCC 17961 IC90
# Experimental: Assay Procedures Antimicrobial Susceptibility Testing: 90% Growth Inhibitory Concentration (IC90) Determination
# The in vitro antimicrobial activity of the compounds was determined according to the following procedure:
# The assay used a 10-points Iso-Sensitest broth medium to measure quantitatively the in vitro activity of the compounds against Acinetobacter baumannii ATCC17961.
# Stock compounds in DMSO were serially twofold diluted (e.g. range from 50 to 0.097 μM final concentration) in 384 wells microtiter plates and inoculated with 49 μl the bacterial suspension in Iso-Sensitest medium to have a final cell concentration of ˜5×10^5 CFU/ml in a final volume/well of 50 μl/well. Microtiter plates were incubated at 35±2° C.
# Bacterial cell growth was determined with the measurement of optical density at λ=600 nm each 20 minutes over a time course of 16 h. Growth inhibition was calculated during the logarithmic growth of the bacterial cells with determination of the concentration inhibiting 50% (IC50) and 90% (IC90) of the growth.
# Table 1 provides the 90% growth inhibitory concentrations (IC90) in micromoles per liter of the compounds of present invention obtained against the strain Acinetobacter baumannii ATCC17961.
row,SMILES,IC90
1,"CN(C)c1nc(F)c(-c2cnc(C(=O)Nc3ccc(C(=O)N4CCN(C(=O)C5CC(C[N+](C)(C)C)C5)CC4)c(Cl)c3)n2C)cc1F (centres unmarked) [Example D11, [3-[4-[2-chloro-4-[[5-[6-(dimethylamino)-2,5-difluoro-3-pyridyl]-1-methyl-imidazole-2-carbonyl]amino]benzoyl]piperazine-1-carbonyl]cyclobutyl]methyl-trimethyl-ammonium]",1.5 µM
2,"COc1cc(Cl)c(-c2cnc(C(=O)Nc3ccc(C(=O)N4CCN(C(=O)C5CCNCC5)CC4)c(Cl)c3)n2C)cn1 [Example A15, 5-(4-chloro-6-methoxy-3-pyridyl)-N-[3-chloro-4-[4-(piperidine-4-carbonyl)piperazine-1-carbonyl]phenyl]-1-methyl-imidazole-2-carboxamide]",0.66 µM
3,"CN(C)c1ccc(-c2cnc(C(=O)Nc3ccc(C(=O)N4CCN(C(=O)C5CCNCC5)CC4)c(Cl)c3)n2C)c(F)n1 [Example E3, N-[3-chloro-4-[4-(piperidine-4-carbonyl)piperazine-1-carbonyl]phenyl]-5-[6-(dimethylamino)-2-fluoro-3-pyridyl]-1-methyl-imidazole-2-carboxamide]",0.47 µM
4,"CN(C)c1ncc(-c2cnc(C(=O)Nc3ccc(C(=O)N4CCN(C(=O)C[C@@H]5CCNC5)CC4)c(Cl)c3)n2C)c(C(F)(F)F)n1 [Example A9, N-[3-chloro-4-[4-[2-[(3S)-pyrrolidin-3-yl]acetyl]piperazine-1-carbonyl]phenyl]-5-[2-(dimethylamino)-4-(trifluoromethyl)pyrimidin-5-yl]-1-methyl-imidazole-2-carboxamide]",0.58 µM
5,"COc1ccc(-c2cnc(C(=O)Nc3ccc(C(=O)N4CCN(C(=O)[C@@H]5C[C@@H](O)CN5)CC4)c(Cl)c3)n2C)c(C(F)(F)F)n1 [Example A17, N-[3-chloro-4-[4-[(2S,4R)-4-hydroxypyrrolidine-2-carbonyl]piperazine-1-carbonyl]phenyl]-5-[6-methoxy-2-(trifluoromethyl)-3-pyridyl]-1-methyl-imidazole-2-carboxamide]",0.36 µM
6,"CN(C)c1nc(F)c(-c2cnc(C(=O)Nc3ccc(C(=O)N4CCN(C(=O)CC5(O)CCNCC5)CC4)c(Cl)c3)n2C)cc1F [Example F3, N-[3-chloro-4-[4-[2-(4-hydroxy-4-piperidyl)acetyl]piperazine-1-carbonyl]phenyl]-5-[6-(dimethylamino)-2,5-difluoro-3-pyridyl]-1-methyl-imidazole-2-carboxamide]",0.43 µM
7,"COc1ccc(-c2cnc(C(=O)Nc3ccc(C(=O)N4CCN(C(=O)C5CCNCC5)CC4)c(Cl)c3)n2C)c(OC)n1 [Example A7, N-[3-chloro-4-[4-(piperidine-4-carbonyl)piperazine-1-carbonyl]phenyl]-5-(2,6-dimethoxy-3-pyridyl)-1-methyl-imidazole-2-carboxamide]",0.46 µM
8,"CN(C)c1nc(F)c(-c2cnc(C(=O)Nc3ccc(C(=O)N4CCN(C(=O)C5CC[N+](C)(C)C5)CC4)c(Cl)c3)n2C)cc1F (centres unmarked) [Example D5, N-[3-chloro-4-[4-(1,1-dimethylpyrrolidin-1-ium-3-carbonyl)piperazine-1-carbonyl]phenyl]-5-[6-(dimethylamino)-2,5-difluoro-3-pyridyl]-1-methyl-imidazole-2-carboxamide]",0.59 µM
9,"CN(C)c1nc(F)c(-c2cnc(C(=O)Nc3ccc(C(=O)N4CCN(C(=O)C5CC(CN)C5)CC4)c(Cl)c3)n2C)cc1F (centres unmarked) [Example F7, N-[4-[4-[3-(aminomethyl)cyclobutanecarbonyl]piperazine-1-carbonyl]-3-chloro-phenyl]-5-[6-(dimethylamino)-2,5-difluoro-3-pyridyl]-1-methyl-imidazole-2-carboxamide]",0.39 µM
10,"CN(C)c1nc(F)c(-c2cnc(C(=O)Nc3ccc(C(=O)N4CCN(C(=O)CC5CCNCC5)CC4)c(Cl)c3)n2C)cc1F [Example F6, N-[3-chloro-4-[4-[2-(4-piperidyl)acetyl]piperazine-1-carbonyl]phenyl]-5-[6-(dimethylamino)-2,5-difluoro-3-pyridyl]-1-methyl-imidazole-2-carboxamide]",0.66 µM
11,"CN(C)c1nc(F)c(-c2cnc(C(=O)Nc3ccc(C(=O)N4CCN(C(=O)C[N+](C)(C)C)CC4)c(Cl)c3)n2C)cc1F [Example D1, [2-[4-[2-chloro-4-[[5-[6-(dimethylamino)-2,5-difluoro-3-pyridyl]-1-methyl-imidazole-2-carbonyl]amino]benzoyl]piperazin-1-yl]-2-oxo-ethyl]-trimethyl-ammonium]",0.65 µM
12,"CN(C)c1nc(F)c(-c2cnc(C(=O)Nc3ccc(C(=O)N4CCC(C(=O)NC5CCNC5)CC4)c(Cl)c3)n2C)cc1F (centres unmarked) [Example F10, 1-[2-chloro-4-[[5-[6-(dimethylamino)-2,5-difluoro-3-pyridyl]-1-methyl-imidazole-2-carbonyl]amino]benzoyl]-N-pyrrolidin-3-yl-piperidine-4-carboxamide]",0.64 µM
13,"CN(C)c1nc(F)c(-c2cnc(C(=O)Nc3ccc(C(=O)N4CCN(C(=O)C5CCNCC5)CC4)c(Cl)c3)n2C)cc1F [Example E2, N-[3-chloro-4-[4-(piperidine-4-carbonyl)piperazine-1-carbonyl]phenyl]-5-[6-(dimethylamino)-2,5-difluoro-3-pyridyl]-1-methyl-imidazole-2-carboxamide]",0.19 µM
14,"CN(C)CC(=O)N1CCN(C(=O)c2ccc(NC(=O)c3ncc(-c4cc(F)c(N(C)C)nc4F)n3C)cc2Cl)CC1 [Example C1, N-[3-chloro-4-[4-[2-(dimethylamino)acetyl]piperazine-1-carbonyl]phenyl]-5-[6-(dimethylamino)-2,5-difluoro-3-pyridyl]-1-methyl-imidazole-2-carboxamide]",0.53 µM
15,"COc1ccc(-c2cnc(C(=O)Nc3ccc(C(=O)N4CCN(C(=O)C5CCNCC5)CC4)c(Cl)c3)n2C)c(C(F)F)n1 [Example A19, N-[3-chloro-4-[4-(piperidine-4-carbonyl)piperazine-1-carbonyl]phenyl]-5-[2-(difluoromethyl)-6-methoxy-3-pyridyl]-1-methyl-imidazole-2-carboxamide]",0.91 µM
16,"Cn1c(-c2ccc(Cl)nc2Cl)cnc1C(=O)Nc1ccc(C(=O)N2CCN(C(=O)C3CCNCC3)CC2)c(Cl)c1 [Example A5, N-[3-chloro-4-[4-(piperidine-4-carbonyl)piperazine-1-carbonyl]phenyl]-5-(2,6-dichloro-3-pyridyl)-1-methyl-imidazole-2-carboxamide]",0.72 µM
17,"Cn1c(-c2ccc3[nH]nc(C(F)(F)F)c3c2)cnc1C(=O)Nc1ccc(C(=O)N2CCN(C(=O)C[C@@H]3CCNC3)CC2)c(Cl)c1 [Example A3, N-[3-chloro-4-[4-[2-[(3S)-pyrrolidin-3-yl]acetyl]piperazine-1-carbonyl]phenyl]-1-methyl-5-[3-(trifluoromethyl)-1H-indazol-5-yl]imidazole-2-carboxamide]",0.23 µM
18,"Cc1n[nH]c2cc(F)c(-c3cnc(C(=O)Nc4ccc(C(=O)N5CCN(C(=O)C[C@@H]6CCNC6)CC5)c(Cl)c4)n3C)cc12 [Example A2, N-[3-chloro-4-[4-[2-[(3S)-pyrrolidin-3-yl]acetyl]piperazine-1-carbonyl]phenyl]-5-(6-fluoro-3-methyl-1H-indazol-5-yl)-1-methyl-imidazole-2-carboxamide]",0.46 µM
19,"CN(C)c1nc(F)c(-c2cnc(C(=O)Nc3ccc(C(=O)NCCCCCCN)c(Cl)c3)n2C)cc1F [Example B1, N-[4-(6-aminohexylcarbamoyl)-3-chloro-phenyl]-5-[6-(dimethylamino)-2,5-difluoro-3-pyridyl]-1-methyl-imidazole-2-carboxamide]",1.7 µM
20,"Cc1nc(N(C)C)ccc1-c1cnc(C(=O)Nc2ccc(C(=O)N3CCN(C(=O)C4CCNCC4)CC3)c(Cl)c2)n1C [Example E4, N-[3-chloro-4-[4-(piperidine-4-carbonyl)piperazine-1-carbonyl]phenyl]-5-[6-(dimethylamino)-2-methyl-3-pyridyl]-1-methyl-imidazole-2-carboxamide]",1.4 µM

# Same assay, conditions: ATCC17961, 16 h, read-out: ATCC 17961 IC90 [μM]
row,SMILES,IC90
1,"CN(C)c1nc(F)c(-c2cnc(C(=O)Nc3ccc(C(=O)NC4CC(NC(=O)C[N+](C)(C)C)C4)c(Cl)c3)n2C)cc1F (centres unmarked) [Example D8, [2-[[3-[[2-chloro-4-[[5-[6-(dimethylamino)-2,5-difluoro-3-pyridyl]-1-methyl-imidazole-2-carbonyl]amino]benzoyl]amino]cyclobutyl]amino]-2-oxo-ethyl]-trimethyl-ammonium]",2.7 µM
2,"Cn1c(-c2c(F)ccc3[nH]ccc23)cnc1C(=O)Nc1ccc(C(=O)N2CCN(C(=O)C[C@@H]3CCNC3)CC2)c(Cl)c1 [Example A1, N-[3-chloro-4-[4-[2-[(3S)-pyrrolidin-3-yl]acetyl]piperazine-1-carbonyl]phenyl]-5-(5-fluoro-1H-indol-4-yl)-1-methyl-imidazole-2-carboxamide]",0.23 µM
3,"CN(C)c1nc(F)c(-c2cnc(C(=O)Nc3ccc(C(=O)NC4CCN(C(=O)CCOCC[N+](C)(C)C)CC4)c(Cl)c3)n2C)cc1F [Example D10, 2-[3-[4-[[2-chloro-4-[[5-[6-(dimethylamino)-2,5-difluoro-3-pyridyl]-1-methyl-imidazole-2-carbonyl]amino]benzoyl]amino]-1-piperidyl]-3-oxo-propoxy]ethyl-trimethyl-ammonium]",5.6 µM
